# From US9408395B2, “Process for potentiating the production of Lingzhi mushroom (Ganoderma lucidum) substances and antifungal activity thereof” (UNIVERSIDAD DE ANTIOQUIA (UDEA), priority 2013, dated 2016)
# Legend:
# [1] = tested on: Mycosphaerella fijiensis; test: Mycelium growth inhibition in microplate format, protein extracts; format: cell-based; settings: 0.3 ppm
# Protocol: In order to obtain protein extracts, the optimized protein extraction protocol was followed (Item 4.1.2). Later, the protein pellet was re-suspended in 1 ml PBS pH 7.4 buffer, 200 μL DMSO and 200 μL glycerol. The protein extracts of each LED were quantified by the Bradford method (Bio-Rad Protein Assay®) (61). […] The extracts were diluted in pH 7.4 PBS phosphate buffer.
# The Mycosphaerella fijiensis-inoculated microplates and also treated with the different extracts were incubated. Readings were performed according to the Standard Norm. Each concentration was assayed in three repetitions, including three experiment replicas (63, 64). Thereafter, the determination of the growth inhibition percentage for each concentration of each protein extract used was performed (65-67).
# Through the use of logic models (non linear regressions) the relationship between the concentration logarithm of each antifungal (x axis) versus inhibition percentage (y axis) was established thus obtaining the respective equations, for EC50 analysis for each treatment at 5 concentrations, in order to determine the necessary concentration of each extract to reduce the population growth by 50% at an in vitro level.
# In order to determine which the best protein extract for Mycosphaerella fijiensis mycelium growth inhibition was, a statistical analysis using a category factorial design was performed. […]
# [2] = tested on: Mycosphaerella fijiensis; test: Agar diffusion assay (plate diffusion method); format: cell-based; settings: compared to other treatments and growth control
# Protocol: In order to corroborate antifungal activity of each extract, said activity was assayed in Petri dishes using the plate diffusion method; for said purpose, 20 ml of PDA medium were dispensed for a final thickness of 4 mm. After homogenizing inocula, deep plating was performed wherein each plate was inoculated using 2×10^4 Mycosphaerella fijiensis mycelium fragments. Afterwards, using a 0.5 mm internal diameter punch, wells were made wherein 10 or 20 μL of each extract were deposited, in addition to the inhibition positive control using Mancozeb and a negative control using a 1:1 ethanol:DMSO mix. The plates were incubated in darkness conditions, 25±1° C. for seven days.
substance,measurement,setting,value
Mancozeb,Inhibition of Mycosphaerella fijiensis growth,[1],72%
same,Mycelium growth inhibition (in words),[2],entirely inhibited
